Values belong to the compound of their own block, whether it stands above or below them.
What was measured:
IscS2 [1] = biological target: T1, IscS2 (Methanosarcina acetivorans, UniProt Q8TME0); experiment: sulfide release, methylene blue assay ([…] nm); format: biochemical; conditions: 1 mM L-cysteine, 1 mM DTT, 50 mM Tris pH 7.5, 25 °C, with or without 50 μM PLP
T1 construct: gene iscS; full-length, N-terminal His6-tag (pET28a) cut with thrombin, E. coli Rosetta (DE3) pLacI; homodimer (84 kDa by SEC)

IscS2 [2] = biological target: T1, IscS2; experiment: UV-visible spectrum ([…] nm) and cysteine desulfurase activity with and without PLP; format: biochemical; conditions: PLP reconstitution at pH 7.2, 25 °C; assay 50 mM Tris pH 7.5, 1 mM L-cysteine, 1 mM DTT, 50 μM PLP
[3] = biological target: Methanosarcina acetivorans IscS2 (MA2718), reconstituted with PLP (Methanosarcina acetivorans); experiment: SEC; IscS2^PLP (3.3 mg loaded) on HiPrep 16/60 Sephacryl S-200, 0.5 ml/min, 50 mM Tris pH 8.0, 150 mM NaCl, 2 mM DTT, 10% glycerol; calibrated with standard proteins; calculated 84 kDa

T1 sequence (Q8TME0 entry or part of it): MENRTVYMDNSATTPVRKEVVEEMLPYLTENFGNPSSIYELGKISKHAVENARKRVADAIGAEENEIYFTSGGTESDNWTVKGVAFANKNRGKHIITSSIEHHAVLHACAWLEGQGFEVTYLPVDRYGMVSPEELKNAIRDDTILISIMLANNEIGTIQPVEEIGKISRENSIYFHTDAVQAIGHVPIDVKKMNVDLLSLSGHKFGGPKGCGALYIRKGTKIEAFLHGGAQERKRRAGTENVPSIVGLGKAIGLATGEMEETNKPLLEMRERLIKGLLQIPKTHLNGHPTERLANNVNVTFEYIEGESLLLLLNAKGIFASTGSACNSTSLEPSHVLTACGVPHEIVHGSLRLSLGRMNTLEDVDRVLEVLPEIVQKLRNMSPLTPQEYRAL

Compound: N[C@@H](CS)C(=O)O [L-cysteine]
sulfide release, methylene blue assay (670 nm) (IscS2 [1]): Purified IscS2 was able to remove sulfur from L-cysteine

Compound: Cc1ncc(COP(=O)(O)O)c(C=O)c1O [PLP]
UV-visible spectrum (420 nm) and cysteine desulfurase activity with and without (IscS2 [2]): these results reveal that IscS2 is a PLP-dependent cysteine desulfurase

stoichiometry N [3]: 2
Compound: Methanosarcina acetivorans IscS2 (MA2718), reconstituted with PLP (enzyme)
